Values joined by “and” are separate entries in the source; they are usually repeats but may differ in a detail not shown here. Equal values may be shown once.
Details: 101.33 kPa, Liquid; for mass density: Vibrating tube method; for viscosity: Vibrating wire viscometry

CCCCCC[n+]1ccn(C)c1.O=S(=O)([N-]S(=O)(=O)C(F)(F)F)C(F)(F)F
Details | mass density [kg/m3] | viscosity
288.15 K | 1381.24 | –
293.14 K | – | 90.27 mPa·s
293.16 K | 1376.63 | –
298.16 K | 1372.04 | –
298.18 K | – | 70.9 mPa·s and 70.95 mPa·s
303.13 K | – | 56.93 mPa·s
303.15 K | 1367.46 | –
303.16 K | 1367.45 | –
308.13 K | – | 46.15 mPa·s
308.16 K | 1362.88 | –
313.09 K | – | 38.05 mPa·s
313.15 K | 1358.32 | –
318.1 K | – | 31.74 mPa·s
318.15 K | 1353.76 | –
318.16 K | 1353.77 | –
323.1 K | – | 26.73 mPa·s
323.15 K | 1349.23 | –
323.16 K | 1349.24 | –
328.15 K | 1344.72 | –

CCOS(=O)(=O)[O-].CCn1cc[n+](C)c1 [1-ethyl-3-methylimidazolium ethyl sulfate]
Details | mass density | viscosity [mPa·s]
288.15 K | 1245.23 kg/m3 | –
288.16 K | 1245.23 kg/m3 | –
290.64 K | 1243.55 kg/m3 | –
290.65 K | 1243.55 kg/m3 | –
293.14 K | 1241.85 kg/m3 | 128.2
293.15 K | 1241.85 kg/m3 | –
295.65 K | 1240.17 kg/m3 and 1240.15 kg/m3 | –
298.15 K | 1238.47 kg/m3 and 1238.45 kg/m3 | –
298.19 K | – | 98.87
298.2 K | – | 98.63
300.65 K | 1236.77 kg/m3 and 1236.76 kg/m3 | –
303.15 K | 1235.08 kg/m3 and 1235.06 kg/m3 | –
303.16 K | – | 77.83
305.65 K | 1233.38 kg/m3 | –
308.15 K | 1231.69 kg/m3 | –
308.19 K | – | 62.54
310.64 K | 1230.01 kg/m3 | –
310.65 K | 1230.01 kg/m3 | –
313.14 K | 1228.32 kg/m3 | 51.1
315.65 K | 1226.63 kg/m3 and 1226.64 kg/m3 | –
318.14 K | – | 42.22
318.15 K | 1224.95 kg/m3 | –
320.64 K | 1223.27 kg/m3 and 1223.28 kg/m3 | –
323.1 K | – | 35.37
323.14 K | 1221.6 kg/m3 | –
323.15 K | 1221.6 kg/m3 | –
325.64 K | 1219.92 kg/m3 | –
325.65 K | 1219.92 kg/m3 | –
328.15 K | 1218.26 kg/m3 | –

CCOS(=O)(=O)[O-].CC[n+]1cccc(C)c1 [1-ethyl-3-methylpyridinium ethylsulfate]
Details | mass density | viscosity [mPa·s]
293.13 K | – | 181.5
293.15 K | 1225.08 kg/m3 | –
293.16 K | 1225.08 kg/m3 | –
295.64 K | 1223.43 kg/m3 | –
295.65 K | 1223.43 kg/m3 | –
298.15 K | 1221.79 kg/m3 | –
298.16 K | 1221.8 kg/m3 | –
298.18 K | – | 133.7
298.2 K | – | 133.8
300.65 K | 1220.15 kg/m3 | –
300.66 K | 1220.15 kg/m3 | –
303.13 K | – | 102.1
303.14 K | 1218.51 kg/m3 | –
303.15 K | 1218.5 kg/m3 | –
305.64 K | 1216.85 kg/m3 | –
305.65 K | 1216.85 kg/m3 | –
308.15 K | 1215.21 kg/m3 and 1215.2 kg/m3 | –
308.16 K | – | 79.18
310.65 K | 1213.56 kg/m3 | –
310.66 K | 1213.56 kg/m3 | –
313.14 K | – | 62.73
313.15 K | 1211.91 kg/m3 | –
315.65 K | 1210.27 kg/m3 | –
315.66 K | 1210.27 kg/m3 | –
318.08 K | – | 50.65
318.15 K | 1208.63 kg/m3 and 1208.64 kg/m3 | –
320.65 K | 1207 kg/m3 | –

— the NIST ThermoML archive (doi:10.1016/j.fluid.2013.05.012)
